Source: US20140142168A1, “METHODS AND PHARMACEUTICAL COMPOSITIONS FOR THE TREATMENT OF HORMONE-REFRACTORY PROSTATE CANCERS” (CENTRE JEAN PERRIN, priority 2011, published 2014)
Read-outs that look alike come from different tables or passages of the source.

Legend:
[1] = Blood levels after administration; assay type: in vivo; conditions: human
Procedure: It was deduced from the investigator data that 1 h after administration of 75 mg/m2 of DTX, blood levels of DTX can reach 3.75 μM.

PC3 cells = test: PC3 survival at end of treatment; assay type: cell-based, human; conditions: 2 h 3.75 μM DTX then 70 h drug-free medium, with or without 2 days of repeated 0.25 μM curcumin pretreatment
Procedure: The PC3 line is a human p-53 defective HRPC line displaying high SphK1 activity. To mimic the effect of treatment, 10,000 PC3 cells were seeded in each well of 24-well plates and maintained in DMEM containing 10% FBS (complete medium) overnight. […] Indeed, in these experiences PC3 cells were treated the first day for 2 h at 7 h AM and maintained in DFM until 12 h AM (5h). […] As previously, the cells were maintained in DFM for 70 h in DFM after DTX treatment.
PC3 survival was determined at the end of treatment 1 and 3. Telomerase activity was determined in survived cells by Trap assay at the end of treatment 1, 2 and 3.

patients with HRPC = conditions: docetaxel-treated patients, reference randomized study; cited from earlier work

COc1cc(/C=C/C(=O)CC(=O)/C=C/c2ccc(O)c(OC)c2)ccc1O [curcumin, (1E,6E)-1,7-bis (4-hydroxy-3-methoxyphenyl)-1,6-heptadiene-3 ,5-dione]
concentration at 1 h ([1]; in vivo): 100 to 450 nM

CC(=O)O[C@@]12CO[C@@H]1C[C@H](O)[C@@]1(C)C(=O)[C@H](O)C3=C(C)[C@@H](OC(=O)[C@H](O)[C@@H](NC(=O)OC(C)(C)C)c4ccccc4)C[C@@](O)([C@@H](OC(=O)c4ccccc4)[C@H]21)C3(C)C [Docetaxel, (2R,3S)-N-carboxy-3-phenylisoserine, N-tert-butyl ester, 13-ester with 5, 20-epoxy-1,2,4,7, 10, 13-hexahydroxytax-11-en-9-one 4-acetate 2-benzoate, trihydrate]
number of survived cells (PC3 cells): 90±5% | concentration at 1 h ([1]; blood, intravenous, 1 h after administration of 75 mg/m2, deduced from the investigator data, read-out: blood levels of DTX): 3750 nM | PSA response (patients with HRPC): 45% | objective tumor response (patients with HRPC): 12%
